Assay results from the supplement of paper PMC11208160.

Assay: recombinant UMI read abundance after kanamycin selection (control-corrected) (log10(CPM+1)); higher = more efficient recombination; extreme values may be limits of the assay; sequences stand for … in AGTGCAGAGAAAATCGGCCAGTTTTCTCTGCCTGCAGTCCGCATGCCGTGGGACCCCTTGGGTTCTAACCTGTTGCCTAGATTTATGCAGCGGACTGCCTTTCTCCCAAAGTGATAAACCGG…AGGTTGGTTTCACT; site = the 11-nt donor
How it was run: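 Sequencing read counts were converted to CPM, averaged over two replicates and scaled by control-derived factors. Results are given as log10(CPM+1). The reads covered the donor–target junction of recombinant UMIs from a pooled Escherichia coli screen of donor and donor-binding-loop pairs for the IS621 bridge recombinase.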
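Also: IS621 bridge recombinase in Escherichia coli cells against a fixed T5 target plasmid.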

Going from “CCGAATGCATGGACCGGTTTTCCCGGTAATCCGTATTTGAT (site CCGAATGCTAT)” to “CCGAATTCATGGACCGGTTTTCCCGGTAATCCGTATTTGTT (site CCGAATTCTAA)”, the “recombinant UMI read abundance (log10)” value falls from 0.919 to 0.

First: CCGAATTCATGGACCGGTTTTCCCGGTAATCCGTATTTGTT (site CGGAATCCTAA)
Second: CCGAGCGCATGGACCGGTTTTCCCGGTAATCCGTATTTGAA (site CCGAGCGCTTT)
The “recombinant UMI read abundance (log10)” value of the first is lower: 0.00782 for the first, 0.998 for the second.

First: CCGAGCTCATGGACCGGTTTTCCCGGTAATCCGTATTTGTA (site CCGAGCTCTTA)
Second: CCGAGGCCATGGACCGGTTTTCCCGGTAATCCGTATTTGGC (site CCGAGGCCTGC)
The “recombinant UMI read abundance (log10)” value of the first is higher: 0.496 for the first, 0 for the second.

“CCGATAGCATGGACCGGTTTTCCCGGTAATCCGTATTTGTG (site CCGATAGCTCA)” and “CCGATAGCATGGACCGGTTTTCCCGGTAATCCGTATTTGTG (site CCGCTAGCTCA)” are within 0.2 log units of each other in “recombinant UMI read abundance (log10)” value: 0.0444 for the first, 0.0063 for the second.

“CCGATAGCATGGACCGGTTTTCCCGGTAATCCGTATTTGTG (site CCGGTAGCTCA)” and “CCGATAGCATGGACCGGTTTTCCCGGTAATCCGTATTTGTG (site CCGTTAGCTCA)” are within 0.2 log units of each other in “recombinant UMI read abundance (log10)” value: 0.00966 for the first, 0.0148 for the second.

First: CCGATATCATGGACCGGTTTTCCCGGTAATCCGTATTTGGC (site CCGATATCTGC)
Second: CCGATCTCATGGACCGGTTTTCCCGGTAATCCGTATTTGAG (site CCGATCTCTCT)
The “recombinant UMI read abundance (log10)” value of the first is higher: 0.68 for the first, 0.00289 for the second.

“CCGCACACATGGACCGGTTTTCCCGGTAATCCGTATTTGGT (site CCGCACACTAC)” and “CCGCACACATGGACCGGTTTTCCCGGTAATCCGTATTTGTA (site CCACACACTTA)” are within 0.2 log units of each other in “recombinant UMI read abundance (log10)” value: 0.509 for the first, 0.587 for the second.

Compared with “CCGCACACATGGACCGGTTTTCCCGGTAATCCGTATTTGTA (site CCCCACACTTA)”, “CCGCACACATGGACCGGTTTTCCCGGTAATCCGTATTTGTA (site CCGCACACTTA)” is higher in “recombinant UMI read abundance (log10)” value: 0.0105 for the first, 0.895 for the second.

First: CCGCACACATGGACCGGTTTTCCCGGTAATCCGTATTTGTA (site CCTCACACTTA)
Second: CCGCATGCATGGACCGGTTTTCCCGGTAATCCGTATTTGCT (site CCGCATGCTAG)
The “recombinant UMI read abundance (log10)” value of the first is lower: 0.00457 for the first, 0.291 for the second.

First: CCGCATTCATGGACCGGTTTTCCCGGTAATCCGTATTTGCG (site CCGCATTCTCG)
Second: CCGCCAGCATGGACCGGTTTTCCCGGTAATCCGTATTTGGG (site CCGCCAGCTCC)
The “recombinant UMI read abundance (log10)” value of the first is higher: 0.57 for the first, 0 for the second.

“CCGCCTCCATGGACCGGTTTTCCCGGTAATCCGTATTTGGC (site CCGCCTCCTGC)” and “CCGCGCACATGGACCGGTTTTCCCGGTAATCCGTATTTGTA (site CCGCGCACTTA)” are within 0.2 log units of each other in “recombinant UMI read abundance (log10)” value: 0 for the first, 0.0144 for the second.

“CCGCGCACATGGACCGGTTTTCCCGGTAATCCGTATTTGTT (site CCGCGCACTAA)” and “CCGCGTACATGGACCGGTTTTCCCGGTAATCCGTATTTGTT (site CCGCGTACTAA)” are within 0.2 log units of each other in “recombinant UMI read abundance (log10)” value: 0.0199 for the first, 0.0381 for the second.

“CCGGAAACATGGACCGGTTTTCCCGGTAATCCGTATTTGCA (site CAGGAAACTTG)” and “CCGGAAACATGGACCGGTTTTCCCGGTAATCCGTATTTGCA (site CCGGAAACTTG)” are within 0.2 log units of each other in “recombinant UMI read abundance (log10)” value: 0 for the first, 0.135 for the second.

“CCGGAAACATGGACCGGTTTTCCCGGTAATCCGTATTTGCA (site CGGGAAACTTG)” and “CCGGAAACATGGACCGGTTTTCCCGGTAATCCGTATTTGCA (site CTGGAAACTTG)” are the same in “recombinant UMI read abundance (log10)” value: 0 for the first, 0 for the second.

Going from “CCGGAGTCATGGACCGGTTTTCCCGGTAATCCGTATTTGCC (site CAGGAGTCTGG)” to “CCGGAGTCATGGACCGGTTTTCCCGGTAATCCGTATTTGCC (site CCGGAGTCTGG)”, the “recombinant UMI read abundance (log10)” value rises from 0 to 1.55.

“CCGGAGTCATGGACCGGTTTTCCCGGTAATCCGTATTTGCC (site CGGGAGTCTGG)” and “CCGGAGTCATGGACCGGTTTTCCCGGTAATCCGTATTTGCC (site CTGGAGTCTGG)” are the same in “recombinant UMI read abundance (log10)” value: 0 for the first, 0 for the second.

First: CCGGCAGCATGGACCGGTTTTCCCGGTAATCCGTATTTGCA (site CCGGCAGCTTG)
Second: CCGGCAGCATGGACCGGTTTTCCCGGTAATCCGTATTTGTA (site CCGGCAGCTTA)
The “recombinant UMI read abundance (log10)” value of the first is lower: 0.255 for the first, 0.665 for the second.

“CCGGTACCATGGACCGGTTTTCCCGGTAATCCGTATTTGAG (site CCGGTACCTCT)” and “CCGGTAGCATGGACCGGTTTTCCCGGTAATCCGTATTTGTG (site CCGATAGCTCA)” are the same in “recombinant UMI read abundance (log10)” value: 0 for the first, 0 for the second.

Compared with “CCGGTAGCATGGACCGGTTTTCCCGGTAATCCGTATTTGTG (site CCGCTAGCTCA)”, “CCGGTAGCATGGACCGGTTTTCCCGGTAATCCGTATTTGTG (site CCGGTAGCTCA)” is higher in “recombinant UMI read abundance (log10)” value: 0.0271 for the first, 0.303 for the second.

“CCGGTAGCATGGACCGGTTTTCCCGGTAATCCGTATTTGTG (site CCGTTAGCTCA)” and “CCGGTCCCATGGACCGGTTTTCCCGGTAATCCGTATTTGTC (site CCGGTCCCTGA)” are within 0.2 log units of each other in “recombinant UMI read abundance (log10)” value: 0.0101 for the first, 0 for the second.

First: CCGGTTACATGGACCGGTTTTCCCGGTAATCCGTATTTGCT (site CCGATTACTAG)
Second: CCGGTTACATGGACCGGTTTTCCCGGTAATCCGTATTTGCT (site CCGCTTACTAG)
The “recombinant UMI read abundance (log10)” value of the first is higher: 0.782 for the first, 0 for the second.

“CCGGTTACATGGACCGGTTTTCCCGGTAATCCGTATTTGCT (site CCGGTTACTAG)” and “CCGGTTACATGGACCGGTTTTCCCGGTAATCCGTATTTGCT (site CCGTTTACTAG)” are the same in “recombinant UMI read abundance (log10)” value: 0 for the first, 0 for the second.

Compared with “CCGTAAGCATGGACCGGTTTTCCCGGTAATCCGTATTTGTG (site CCGTAAGCTCA)”, “CCGTAAGCATGGACCGGTTTTCCCGGTAATCCGTATTTGTG (site CCGTCAGCTCA)” is lower in “recombinant UMI read abundance (log10)” value: 0.404 for the first, 0.0145 for the second.

“CCGTAAGCATGGACCGGTTTTCCCGGTAATCCGTATTTGTG (site CCGTGAGCTCA)” and “CCGTAAGCATGGACCGGTTTTCCCGGTAATCCGTATTTGTG (site CCGTTAGCTCA)” are within 0.2 log units of each other in “recombinant UMI read abundance (log10)” value: 0.011 for the first, 0.0113 for the second.

“CCGTAGTCATGGACCGGTTTTCCCGGTAATCCGTATTTGGG (site CCGTAGTCTCC)” and “CCGTCTACATGGACCGGTTTTCCCGGTAATCCGTATTTGCT (site CCGTATACTAG)” are within 0.2 log units of each other in “recombinant UMI read abundance (log10)” value: 0.0263 for the first, 0 for the second.

First: CCGTCTACATGGACCGGTTTTCCCGGTAATCCGTATTTGCT (site CCGTCTACTAG)
Second: CCGTCTACATGGACCGGTTTTCCCGGTAATCCGTATTTGCT (site CCGTGTACTAG)
The “recombinant UMI read abundance (log10)” value of the first is higher: 0.223 for the first, 0 for the second.

“CCGTCTACATGGACCGGTTTTCCCGGTAATCCGTATTTGCT (site CCGTTTACTAG)” and “CCGTTACCATGGACCGGTTTTCCCGGTAATCCGTATTTGTG (site CCGTTAACTCA)” are within 0.2 log units of each other in “recombinant UMI read abundance (log10)” value: 0 for the first, 0.00404 for the second.

“CCGTTACCATGGACCGGTTTTCCCGGTAATCCGTATTTGTG (site CCGTTACCTCA)” and “CCGTTACCATGGACCGGTTTTCCCGGTAATCCGTATTTGTG (site CCGTTAGCTCA)” are within 0.2 log units of each other in “recombinant UMI read abundance (log10)” value: 0.0136 for the first, 0.0116 for the second.

“CCGTTACCATGGACCGGTTTTCCCGGTAATCCGTATTTGTG (site CCGTTATCTCA)” and “CCGTTAGCATGGACCGGTTTTCCCGGTAATCCGTATTTGCG (site CCGTTAGCTCA)” are the same in “recombinant UMI read abundance (log10)” value: 0 for the first, 0 for the second.

“CCGTTAGCATGGACCGGTTTTCCCGGTAATCCGTATTTGCG (site CCGTTAGCTCC)” and “CCGTTAGCATGGACCGGTTTTCCCGGTAATCCGTATTTGCG (site CCGTTAGCTCG)” are within 0.2 log units of each other in “recombinant UMI read abundance (log10)” value: 0 for the first, 0.184 for the second.

“CCGTTAGCATGGACCGGTTTTCCCGGTAATCCGTATTTGCG (site CCGTTAGCTCT)” and “CCGTTCACATGGACCGGTTTTCCCGGTAATCCGTATTTGCT (site CCGTTAACTAG)” are within 0.2 log units of each other in “recombinant UMI read abundance (log10)” value: 0.0063 for the first, 0 for the second.

Compared with “CCGTTCACATGGACCGGTTTTCCCGGTAATCCGTATTTGCT (site CCGTTCACTAG)”, “CCGTTCACATGGACCGGTTTTCCCGGTAATCCGTATTTGCT (site CCGTTGACTAG)” is lower in “recombinant UMI read abundance (log10)” value: 0.726 for the first, 0 for the second.

“CCGTTCACATGGACCGGTTTTCCCGGTAATCCGTATTTGCT (site CCGTTTACTAG)” and “CCGTTTACATGGACCGGTTTTCCCGGTAATCCGTATTTGCA (site CCGTTTACTAG)” are the same in “recombinant UMI read abundance (log10)” value: 0 for the first, 0 for the second.

“CCGTTTACATGGACCGGTTTTCCCGGTAATCCGTATTTGCA (site CCGTTTACTCG)” and “CCGTTTACATGGACCGGTTTTCCCGGTAATCCGTATTTGCA (site CCGTTTACTGG)” are the same in “recombinant UMI read abundance (log10)” value: 0 for the first, 0 for the second.

“CCGTTTACATGGACCGGTTTTCCCGGTAATCCGTATTTGCA (site CCGTTTACTTG)” and “CCGTTTACATGGACCGGTTTTCCCGGTAATCCGTATTTGCG (site CCGTTTACTAG)” are the same in “recombinant UMI read abundance (log10)” value: 0 for the first, 0 for the second.

“CCGTTTACATGGACCGGTTTTCCCGGTAATCCGTATTTGCG (site CCGTTTACTCG)” and “CCGTTTACATGGACCGGTTTTCCCGGTAATCCGTATTTGCG (site CCGTTTACTGG)” are within 0.2 log units of each other in “recombinant UMI read abundance (log10)” value: 0.0437 for the first, 0 for the second.

“CCGTTTACATGGACCGGTTTTCCCGGTAATCCGTATTTGCG (site CCGTTTACTTG)” and “CCGTTTGCATGGACCGGTTTTCCCGGTAATCCGTATTTGTG (site CCGTTAGCTCA)” are within 0.2 log units of each other in “recombinant UMI read abundance (log10)” value: 0 for the first, 0.00545 for the second.

With “CCGTTTGCATGGACCGGTTTTCCCGGTAATCCGTATTTGTG (site CCGTTCGCTCA)” the “recombinant UMI read abundance (log10)” value was 0.0182.
